According to article PMC3744640 (Bioorganic & medicinal chemistry letters, 2013):
Entries after “also recorded” stand apart in the source; their conditions may differ.

Key:
HepG2 = test: growth inhibition of HepG2 liver carcinoma cells; type: cell-based; details: up to 100 μM
Huh-7 = test: growth inhibition of Huh-7 liver carcinoma cells; type: cell-based; details: up to 100 μM
VEGFR-2 = VEGFR-2 (Homo sapiens, UniProt P35968); test: VEGFR-2 inhibition at a single concentration; type: biochemical; details: 10 μM concentration of test compound
C-RAF = C-RAF (Homo sapiens, UniProt P04049); test: C-RAF kinase inhibition; type: biochemical; details: compared with t-CUPM
10 recombinant kinases = details: 10 μM concentration
[1] = test system: lipopolysaccharide-induced inflammation; details: lipopolysaccharide-induced inflammation murine model; cited from earlier work

Chain of VEGFR-2 (P35968 20-1356): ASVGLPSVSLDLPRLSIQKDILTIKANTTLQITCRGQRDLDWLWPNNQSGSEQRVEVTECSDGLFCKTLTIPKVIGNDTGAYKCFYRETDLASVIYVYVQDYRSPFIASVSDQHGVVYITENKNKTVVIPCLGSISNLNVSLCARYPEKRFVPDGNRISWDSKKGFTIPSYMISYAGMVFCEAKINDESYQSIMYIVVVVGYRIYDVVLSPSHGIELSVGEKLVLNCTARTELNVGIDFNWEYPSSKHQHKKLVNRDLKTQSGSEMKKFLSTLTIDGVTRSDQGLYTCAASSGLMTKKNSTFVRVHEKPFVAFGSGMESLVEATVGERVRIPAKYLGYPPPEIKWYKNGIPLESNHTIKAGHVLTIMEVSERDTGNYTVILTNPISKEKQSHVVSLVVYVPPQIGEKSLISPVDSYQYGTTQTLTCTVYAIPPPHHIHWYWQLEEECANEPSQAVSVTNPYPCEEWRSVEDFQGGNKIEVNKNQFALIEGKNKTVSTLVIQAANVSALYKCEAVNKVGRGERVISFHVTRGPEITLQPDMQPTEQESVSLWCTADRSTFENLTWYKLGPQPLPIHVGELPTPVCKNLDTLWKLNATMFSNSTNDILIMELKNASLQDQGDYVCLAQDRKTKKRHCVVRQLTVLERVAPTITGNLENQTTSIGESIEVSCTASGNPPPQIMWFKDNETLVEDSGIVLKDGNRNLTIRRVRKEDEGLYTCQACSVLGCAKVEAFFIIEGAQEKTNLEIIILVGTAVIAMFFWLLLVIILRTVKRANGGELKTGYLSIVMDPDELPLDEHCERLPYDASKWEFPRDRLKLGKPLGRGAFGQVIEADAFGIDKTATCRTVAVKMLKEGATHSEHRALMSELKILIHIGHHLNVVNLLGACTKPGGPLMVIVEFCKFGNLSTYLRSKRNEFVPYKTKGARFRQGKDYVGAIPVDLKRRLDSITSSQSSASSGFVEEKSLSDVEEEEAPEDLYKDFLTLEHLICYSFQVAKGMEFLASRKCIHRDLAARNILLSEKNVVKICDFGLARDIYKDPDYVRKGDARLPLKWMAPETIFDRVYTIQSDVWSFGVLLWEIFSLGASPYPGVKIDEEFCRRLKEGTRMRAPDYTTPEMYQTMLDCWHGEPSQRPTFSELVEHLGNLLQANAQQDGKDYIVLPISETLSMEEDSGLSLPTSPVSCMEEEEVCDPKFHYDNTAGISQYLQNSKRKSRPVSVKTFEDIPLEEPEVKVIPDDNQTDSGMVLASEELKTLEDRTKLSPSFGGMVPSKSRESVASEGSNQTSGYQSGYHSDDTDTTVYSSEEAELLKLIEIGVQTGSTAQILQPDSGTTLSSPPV
Chain of C-RAF (P04049 whole entry): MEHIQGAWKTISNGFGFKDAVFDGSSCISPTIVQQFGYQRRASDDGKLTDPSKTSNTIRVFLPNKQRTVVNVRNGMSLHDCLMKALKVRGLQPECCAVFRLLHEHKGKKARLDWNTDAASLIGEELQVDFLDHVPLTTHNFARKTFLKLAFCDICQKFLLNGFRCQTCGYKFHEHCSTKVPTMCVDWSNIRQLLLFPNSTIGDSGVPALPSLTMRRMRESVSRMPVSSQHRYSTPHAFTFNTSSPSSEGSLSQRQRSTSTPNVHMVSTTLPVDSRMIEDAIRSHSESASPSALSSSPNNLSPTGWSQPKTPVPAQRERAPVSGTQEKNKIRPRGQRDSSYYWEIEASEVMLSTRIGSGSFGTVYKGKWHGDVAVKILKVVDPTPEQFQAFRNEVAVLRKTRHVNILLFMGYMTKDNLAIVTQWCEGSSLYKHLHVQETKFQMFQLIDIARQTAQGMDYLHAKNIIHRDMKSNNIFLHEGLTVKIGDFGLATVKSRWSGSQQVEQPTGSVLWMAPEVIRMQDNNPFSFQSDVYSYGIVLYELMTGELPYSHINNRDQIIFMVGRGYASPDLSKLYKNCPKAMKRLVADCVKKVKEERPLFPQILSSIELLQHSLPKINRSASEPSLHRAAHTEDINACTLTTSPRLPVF

Percent inhibition against VEGFR-2 (in words) (VEGFR-2)	SMILES	further results
	CS(=O)(=O)N1CCC(NC(=O)Nc2ccc(OC(F)(F)F)cc2)CC1 [TUPS]	effect on cell viability (in words) (HepG2): no observable effects on cell viability; effect on cell viability (in words) (Huh-7): no observable effects on cell viability
displayed potency towards VEGFR-2	CNC(=O)c1cc(O[C@H]2CC[C@H](NC(=O)Nc3ccc(Cl)c(C(F)(F)F)c3)CC2)ccn1 [compound 4, trans-4-{4-[3-(4-chloro-3-trifluoromethyl-phenyl)-ureido]-cyclohexyloxy}-pyridine-2-carboxylic acid methylamide]	
lack of VEGFR-2 inhibition	O=C(Nc1ccc(Cl)c(C(F)(F)F)c1)N[C@H]1CC[C@H](Oc2cccc(C(=O)O)c2)CC1 [compound 7, trans-3-{4-[3-(4-chloro-3-trifluoromethyl-phenyl)-ureido]-cyclohexyloxy}-benzoic acid]	
	CNC(=O)c1cccc(O[C@H]2CC[C@H](NC(=O)Nc3ccc(Cl)c(C(F)(F)F)c3)CC2)c1 [compound 8]	Percent inhibition against VEGFR-2 (in words) (VEGFR-2; 10 µM): little inhibitory activity; also recorded: lack of VEGFR-2 inhibition
displayed potency towards VEGFR-2	CNC(=O)c1ccc(O[C@H]2CC[C@H](NC(=O)Nc3ccc(Cl)c(C(F)(F)F)c3)CC2)cn1 [compound 9]	fold less activity against C-RAF relative to t-CUPM (C-RAF): 2.3 fold
	O=C(Nc1ccc(OC(F)(F)F)cc1)N[C@H]1CC[C@H](Oc2ccc(C(=O)O)cc2)CC1 [compound 12, trans-4-{4-[3-(4-trifluoromethoxy-phenyl)-ureido]-cyclohexyloxy}-benzoic acid]	multi-kinase inhibition (in words) (10 recombinant kinases): no significant multi-kinase inhibition
lack of VEGFR-2 inhibition	CNC(=O)c1cc(O[C@H]2CC[C@@H](NC(=O)Nc3ccc(Cl)c(C(F)(F)F)c3)CC2)ccn1 [compound 17]	
displayed potency towards VEGFR-2	CNC(=O)c1cc(Oc2ccc(NC(=O)NC34CC5CC(CC(C5)C3)C4)cc2)ccn1 [compound 21]	
displayed potency towards VEGFR-2	CNC(=O)c1cc(Oc2ccc(NC(=O)Nc3ccc(OC(F)(F)F)cc3)cc2)ccn1 [compound 22]	
	CNC(=O)c1cc(Oc2ccc(NC(=O)Nc3ccc(Cl)c(C(F)(F)F)c3)cc2)ccn1 [sorafenib]	anti-inflammatory response (in words) [1]: exhibits similar anti-inflammatory responses as conventional sEH inhibitors
